Results from patent US20230203081A1, “LINCOSAMIDE ANTIBIOTICS AND USES THEREOF” (President and Fellows of Harvard College, priority 2020, published 2023).
Converted amounts (≈) assume the structure as drawn.

Tests used:
Format in all cases: cell-based
E. coli ΔTolC = experiment: microbe, parasite or virus in culture; settings: Escherichia coli
Outline: (§1)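 Isolates other than streptococci and anaerobes, which had their own procedures, were grown overnight at 35° C on tryptic soy agar with 5% sheep blood. Suspensions were then diluted to a final inoculum of 5×10^5 CFU/mL in broth microdilution wells.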

S. aureus BAA 977 iErmA = experiment: microbe, parasite or virus in culture; settings: Staphylococcus aureus, BAA-977 / MRSA
Outline: as §1

S. aureus MP-549 msrA = experiment: microbe, parasite or virus in culture; settings: Staphylococcus aureus, MP549MSRA
Outline: as §1

[1] = system: broad panel of different clinical isolates; experiment: microbe, parasite or virus in culture
Outline: as §1

E. coli ATCC 25922 = experiment: MIC (broth microdilution or agar dilution, CLSI); settings: Escherichia coli, ATCC25922
Outline: as §1

E. coli LptD = experiment: MIC (broth microdilution or agar dilution, CLSI); settings: Escherichia coli, E. coli HAV#040; LptD; read-out: MIC
Outline: as §1

[2] = system: E. faecalis MMX 847; cErmB; experiment: MIC (broth microdilution or agar dilution, CLSI); settings: Enterococcus faecalis
Outline: as §1

K. pneumoniae ATCC 10031 = experiment: MIC (broth microdilution or agar dilution, CLSI); settings: Klebsiella pneumoniae, ATCC10031
Outline: as §1

S. aureus ATCC 29213 = experiment: MIC (broth microdilution or agar dilution, CLSI); settings: Staphylococcus aureus, ATCC29213
Outline: as §1

S. aureus ATCC 700699 = experiment: MIC (broth microdilution or agar dilution, CLSI); settings: Staphylococcus aureus, ATCC 700699 / VISA
Outline: as §1

[3] = system: S. aureus ATCC BAA-1707 (MRSA); experiment: MIC (broth microdilution or agar dilution, CLSI); settings: Staphylococcus aureus
Outline: as §1

S. aureus MMX 3035 cErmA = experiment: MIC (broth microdilution or agar dilution, CLSI); settings: Staphylococcus aureus, MMX3035CERMA
Outline: as §1

S. pneumoniae ATCC 49619 = experiment: MIC (broth microdilution or agar dilution, CLSI); settings: Streptococcus pneumoniae, ATCC49619
Outline: as §1

S. pneumoniae ATCC 6303 = experiment: MIC (broth microdilution or agar dilution, CLSI); settings: Streptococcus pneumoniae, ATCC6303
Outline: as §1

[4] = system: S. pneumoniae MMX 3028 cErmB; experiment: MIC (broth microdilution or agar dilution, CLSI); settings: Streptococcus pneumoniae, MMX3028CERMB
Outline: as §1

[5] = system: S. pneumoniae MMX 3031 cMefA; experiment: MIC (broth microdilution or agar dilution, CLSI); settings: Streptococcus pneumoniae, MMX3031CMEFA
Outline: as §1

S. pyogenes ATCC 19615 = experiment: MIC (broth microdilution or agar dilution, CLSI); settings: Streptococcus pyogenes, ATCC19615
Outline: as §1

[6] = system: S. pyogenes MMX 946; cErmB; experiment: MIC (broth microdilution or agar dilution, CLSI); settings: Streptococcus pyogenes
Outline: as §1

In the case of `CN[C@H](CC(C)C)C(=O)N[C@H]1C(=O)N[C@@H](CC(N)=O)C(=O)N[C@H]2C(=O)N[C@H]3C(=O)N[C@H](C(=O)N[C@H](C(=O)O)c4cc(O)cc(O)c4-c4cc3ccc4O)[C@H](O)c3ccc(c(Cl)c3)Oc3cc2cc(c3O[C@@H]2O[C@H](CO)[C@@H](O)[C@H](O)[C@H]2O[C@H]2C[C@](C)(N)[C@H](O)[C@H](C)O2)Oc2ccc(cc2Cl)[C@H]1O` [Vancomycin], the MIC (E. coli ΔTolC) is reported as > 128 µg/mL, the MIC (S. aureus BAA 977 iErmA) is reported as 1 µg/mL (≈ 0.69 µM) and the MIC (S. aureus MP-549 msrA) is reported as 1 µg/mL (≈ 0.69 µM). The MIC ([1]; Acinetobacter baumannii, A. baumannii HAV#651, Clinical) was 128 µg/mL (≈ 88.3 µM), the MIC ([1]; Acinetobacter baumannii, A. baumannii HAV#652 Clinical) was 128 µg/mL (≈ 88.3 µM) and the MIC ([1]; Acinetobacter baumannii, A. baumannii HAV#653, Clinical) was 128 µg/mL (≈ 88.3 µM). The MIC ([1]; Acinetobacter baumannii, A. baumannii HAV#654, Clinical) was 128 µg/mL (≈ 88.3 µM), the MIC ([1]; Acinetobacter baumannii, A. baumannii HAV#655, Clinical) was 128 µg/mL (≈ 88.3 µM) and the MIC ([1]; Acinetobacter baumannii, A. baumannii HAV#656, Clinical) was > 128 µg/mL. The MIC ([1]; Acinetobacter baumannii, A. baumannii HAV#657, Clinical) was > 128 µg/mL, the MIC ([1]; Acinetobacter baumannii, A. baumannii HAV#658, Clinical) was > 128 µg/mL and the MIC ([1]; Acinetobacter baumannii, A. baumannii HAV#659, Clinical) was > 128 µg/mL. For the same compound, the MIC ([1]; Acinetobacter baumannii, A. baumannii HAV#660, Clinical) was > 128 µg/mL, the MIC ([1]; Acinetobacter baumannii, A. baumannii HAV#661, Clinical) was 128 µg/mL (≈ 88.3 µM) and the MIC ([1]; Acinetobacter baumannii, A. baumannii HAV#662, Clinical) was > 128 µg/mL. The MIC ([1]; Acinetobacter baumannii, A. baumannii HAV#663, Clinical) was 128 µg/mL (≈ 88.3 µM), the MIC ([1]; Acinetobacter baumannii, A. baumannii HAV#664, Carbapenem R) was > 128 µg/mL and the MIC ([1]; Enterococcus faecalis, E. faecalis HAV#602, Clincal) was 4 µg/mL (≈ 2.76 µM). The MIC ([1]; Enterococcus faecalis, E. faecalis HAV#607, Clinical) was > 128 µg/mL, the MIC ([1]; Enterococcus faecalis, E. faecalis HAV#608, Clinical) was 16 µg/mL (≈ 11 µM) and the MIC ([1]; Enterococcus faecalis, E. faecalis HAV#609, Clinical) was 32 µg/mL (≈ 22.1 µM). The MIC ([1]; Enterococcus faecalis, E. faecalis HAV#610, Clinical) was 32 µg/mL (≈ 22.1 µM), the MIC ([1]; Enterococcus faecalis, S. faecalis 5060, Line R & Vanco R) was > 256 µg/mL and the MIC ([1]; Enterococcus faecalis, S. faecalis 5074, Line R) was 2 µg/mL (≈ 1.38 µM). The MIC ([1]; Enterococcus faecalis, VRE, E. faecalis HAV#251, Clinical VRE) was 8 µg/mL (≈ 5.52 µM), the MIC ([1]; Enterococcus faecalis, VRE, E. faecalis HAV#606, Clinical) was > 128 µg/mL and the MIC ([1]; Enterococcus faecium, E. faecium HAV#317, Clinical) was 2 µg/mL (≈ 1.38 µM). The MIC ([1]; Enterococcus faecium, E. faecium HAV#324, Clinical) was > 128 µg/mL, the MIC ([1]; Enterococcus faecium, E. faecium HAV#327, Clinical) was 4 µg/mL (≈ 2.76 µM) and the MIC ([1]; Enterococcus faecium, E. faecium HAV#328, Clinical) was > 128 µg/mL. For the same compound, the MIC ([1]; Enterococcus faecium, E. faecium HAV#329, Clinical) was > 128 µg/mL, the MIC ([1]; Enterococcus faecium, VRE, E. faecium HAV#318, VanA) was > 64 µg/mL and the MIC ([1]; Enterococcus faecium, VRE, E. faecium HAV#319, Line R & Vanco R) was > 256 µg/mL. For the same compound, the MIC ([1]; Enterococcus faecium, VRE, E. faecium HAV#320, Clinical) was > 128 µg/mL, the MIC ([1]; Escherichia coli, E. coli HAV#503, Clinical) was 128 µg/mL (≈ 88.3 µM) and the MIC ([1]; Escherichia coli, E. coli HAV#511, Clinical) was > 128 µg/mL. The MIC ([1]; Escherichia coli, E. coli HAV#512, Clinical) was > 128 µg/mL, the MIC ([1]; Escherichia coli, E. coli HAV#513, Clinical) was > 128 µg/mL and the MIC ([1]; Escherichia coli, E. coli HAV#514, Clinical) was 128 µg/mL (≈ 88.3 µM). For the same compound, the MIC ([1]; Escherichia coli, E. coli HAV#516, ESBL-producing) was 128 µg/mL (≈ 88.3 µM), the MIC ([1]; Haemophilus influenzae, ATCC9007, H. influenzae HAV#376, ATCC-9007) was > 64 µg/mL and the MIC ([1]; Klebsiella pneumoniae, K. pneumoniae HAV#404, Clinical) was > 128 µg/mL. For the same compound, the MIC ([1]; Klebsiella pneumoniae, K. pneumoniae HAV#405, Clinical) was > 128 µg/mL, the MIC ([1]; Klebsiella pneumoniae, K. pneumoniae HAV#406, Clinical) was > 128 µg/mL and the MIC ([1]; Klebsiella pneumoniae, K. pneumoniae HAV#407, Clinical) was > 128 µg/mL. The MIC ([1]; Klebsiella pneumoniae, K. pneumoniae HAV#408, Clinical) was > 128 µg/mL, the MIC ([1]; Klebsiella pneumoniae, K. pneumoniae HAV#409, ESBL-producing) was > 128 µg/mL and the MIC ([1]; Staphylococcus aureus, MRSA, S. aureus HAV#0107, MRSA Col(Colindale, England)) was 2 µg/mL (≈ 1.38 µM). For the same compound, the MIC ([1]; Staphylococcus aureus, MRSA, S. aureus HAV#218, Line R) was 1 µg/mL (≈ 0.69 µM), the MIC ([1]; Staphylococcus aureus, MRSA, S. aureus HAV#220, Line R) was 1 µg/mL (≈ 0.69 µM) and the MIC ([1]; Staphylococcus aureus, MSSA, S. aureus HAV#219, Line R) was 1 µg/mL (≈ 0.69 µM). The MIC ([1]; Staphylococcus aureus, S. aureus HAV#051, mecA, norA, spcl, ermA, aad1, aac6′-aph2″) was 2 µg/mL (≈ 1.38 µM), the MIC ([1]; Staphylococcus aureus, S. aureus HAV#052, mecA, norA, fosB, blaZ) was 2 µg/mL (≈ 1.38 µM) and the MIC ([1]; Staphylococcus aureus, S. aureus HAV#053 mecA, norA, fosB) was 2 µg/mL (≈ 1.38 µM). For the same compound, the MIC ([1]; Staphylococcus aureus, S. aureus HAV#054, mecA, norA, spcl, aad1, fosB, ermA, aac6′-aph2″, blaZ) was 1 µg/mL (≈ 0.69 µM), the MIC ([1]; Staphylococcus aureus, S. aureus HAV#211, Clinical) was 0.5 µg/mL (≈ 0.345 µM) and the MIC ([1]; Staphylococcus aureus, S. aureus HAV#212, Clinical) was 0.5 µg/mL (≈ 0.345 µM). The MIC ([1]; Staphylococcus aureus, S. aureus HAV#213, Clinical) was 0.5 µg/mL (≈ 0.345 µM), the MIC ([1]; Staphylococcus aureus, S. aureus HAV#214, Clinical) was 0.5 µg/mL (≈ 0.345 µM) and the MIC ([1]; Staphylococcus aureus, S. aureus HAV#215, Clinical) was 1 µg/mL (≈ 0.69 µM). The MIC ([1]; Staphylococcus aureus, S. aureus HAV#216, Clinical, cfr) was > 64 µg/mL, the MIC ([1]; Staphylococcus aureus, S. aureus HAV#217, cfr) was > 64 µg/mL and the MIC ([1]; Staphylococcus aureus, VISA, S. aureus HAV#203, Clinical (VISA)) was 8 µg/mL (≈ 5.52 µM). For the same compound, the MIC ([1]; Staphylococcus epidermidis, S. epidermidis HAV# 275 Clinical, cfr) was > 64 µg/mL, the MIC ([1]; Staphylococcus epidermidis, S. epidermidis HAV# 276, cfr) was > 64 µg/mL and the MIC ([1]; Staphylococcus epidermidis, S. epidermidis HAV#277, Line R) was 2 µg/mL (≈ 1.38 µM). It also gave an MIC ([1]; Staphylococcus epidermidis, S. epidermidis HAV#278 Line R) of 2 µg/mL (≈ 1.38 µM), an MIC ([1]; Staphylococcus epidermidis, S. epidermidis HAV#279, Line R) of 2 µg/mL (≈ 1.38 µM) and an MIC ([1]; Staphylococcus haemolyticus, S. haemolyticus 5052, Line R & Methicillin R) of 1 µg/mL (≈ 0.69 µM). For the same compound, the MIC ([1]; Streptococcus pneumoniae, ATCC700673, S. pneumoniae HAV#352, ATCC 700673, MDR) was 0.5 µg/mL (≈ 0.345 µM), the MIC ([1]; Streptococcus pneumoniae, ATCCBAA255, S. pneumoniae HAV#354, ATCC-BAA-255) was 1 µg/mL (≈ 0.69 µM) and the MIC ([1]; Streptococcus pneumoniae, ATCCBAA334, S. pneumoniae HAV#353, ATCC-BAA-334) was 0.5 µg/mL (≈ 0.345 µM). The MIC ([1]; Streptococcus pneumoniae, S. pneumoniae HAV#356, Clinical) was 2 µg/mL (≈ 1.38 µM), the MIC ([1]; Streptococcus pneumoniae, S. pneumoniae HAV#358, Clinical) was 1 µg/mL (≈ 0.69 µM) and the MIC (E. coli ATCC 25922) was > 128 µg/mL. For the same compound, the MIC (E. coli LptD) was 1 µg/mL (≈ 0.69 µM), the MIC [2] was > 64 µg/mL and the MIC (K. pneumoniae ATCC 10031) was > 64 µg/mL. For the same compound, the MIC (S. aureus ATCC 29213) was 1 µg/mL (≈ 0.69 µM), the MIC (S. aureus ATCC 700699) was 8 µg/mL (≈ 5.52 µM) and the MIC [3] was 1 µg/mL (≈ 0.69 µM). The MIC (S. aureus MMX 3035 cErmA) was 2 µg/mL (≈ 1.38 µM), the MIC (S. pneumoniae ATCC 49619) was 0.5 µg/mL (≈ 0.345 µM) and the MIC (S. pneumoniae ATCC 6303) was 0.5 µg/mL (≈ 0.345 µM). For the same compound, the MIC [4] was 0.25 µg/mL (≈ 0.173 µM), the MIC [5] was 0.5 µg/mL (≈ 0.345 µM) and the MIC (S. pyogenes ATCC 19615) was 0.5 µg/mL (≈ 0.345 µM). For the same compound, the MIC [6] was 0.5 µg/mL (≈ 0.345 µM).
